Experimental data taken from PubChem BioAssay AID2060903 (Molecular Pharmacology Branch, DTP, NCI, 2025).

System: 377384-186-R-J1-PDC complex spheroid viability
Assay: Anticancer human tumor 377384-186-R-J1-PDC patient-derived pancreatic carcinoma cell line growth inhibition [RAS]
Conditions: for IC50: curve of first compound; for viability, T/C: stronger effect = lower value
Method in brief: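 Multi-cell-type spheroids: tumor cells plus HUVEC endothelial cells and mesenchymal stem cells. RAS-pathway inhibitors were combined with targeted agents, each dosed in half-log steps down from clinical Cmax, or from 10 microM when Cmax was unknown.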

[1] = second compound 0.0316 µM, first compound 0.0316 µM
[2] = second compound 0.0316 µM, first compound 0.1 µM
[3] = second compound 0.0316 µM, first compound 0.316 µM
[4] = second compound 0.0316 µM, first compound 1 µM
[5] = second compound 0.1 µM, first compound 0.0316 µM
[6] = second compound 0.1 µM, first compound 0.1 µM
[7] = second compound 0.1 µM, first compound 0.316 µM
[8] = second compound 0.1 µM, first compound 1 µM
[9] = second compound 0.316 µM, first compound 0.0316 µM
[10] = second compound 0.316 µM, first compound 0.1 µM
[11] = second compound 0.316 µM, first compound 0.316 µM
[12] = second compound 0.316 µM, first compound 1 µM
[13] = second compound 1 µM, first compound 0.0316 µM
[14] = second compound 1 µM, first compound 0.1 µM
[15] = second compound 1 µM, first compound 0.316 µM
[16] = second compound 1 µM, first compound 1 µM
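Also: spheroids exposed to compounds for seven days before readout.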

Question: With `O=C(c1ccc(F)c(F)c1Nc1ccc(I)cc1F)N1CC(O)([C@@H]2CCCCN2)C1` + C=CC(=O)N1CCN(c2nc(OCC3CCCN3C)nc3c(F)c(-c4nc(N)cc(C)c4C(F)(F)F)c(Cl)cc23)C(C)C1 as the molecule, how does the IC50 (second compound 0.00316 µM) read?
Answer: Its IC50 is 42.5 nM.

Question: What about the IC50 (second compound 0.01 µM) of the same molecule?
Answer: The IC50 was 33 nM.

Question: And the IC50 (second compound 0.0316 µM)?
Answer: Its IC50 is 36.7 nM.

Question: And the IC50 (second compound 0.1 µM)?
Answer: Its IC50 is 37.3 nM.

Question: And the IC50 (second compound 0.316 µM)?
Answer: Its IC50 is 40.6 nM.

Question: And the IC50 (second compound 1 µM)?
Answer: Its IC50 is 45.1 nM.

Question: And the viability, T/C (second compound 0.00316 µM, first compound 0.00316 µM)?
Answer: The viability, T/C was 81.3%.

Question: What about the viability, T/C (second compound 0.00316 µM, first compound 0.01 µM) of the same molecule?
Answer: The viability, T/C was 79.2%.

Question: And the viability, T/C (second compound 0.00316 µM, first compound 0.0316 µM)?
Answer: Its viability, T/C is 58.5%.

Question: What about the viability, T/C (second compound 0.00316 µM, first compound 0.1 µM) of the same molecule?
Answer: The viability, T/C was 23.8%.

Question: And the viability, T/C (second compound 0.00316 µM, first compound 0.316 µM)?
Answer: Its viability, T/C is 3.06%.

Question: And the viability, T/C (second compound 0.00316 µM, first compound 1 µM)?
Answer: The viability, T/C was 0.45%.

Question: What about the viability, T/C (second compound 0.01 µM, first compound 0.00316 µM) of the same molecule?
Answer: The viability, T/C was 94.9%.

Question: And the viability, T/C (second compound 0.01 µM, first compound 0.01 µM)?
Answer: Its viability, T/C is 77.9%.

Question: What about the viability, T/C (second compound 0.01 µM, first compound 0.0316 µM) of the same molecule?
Answer: Its viability, T/C is 51.3%.

Question: What about the viability, T/C (second compound 0.01 µM, first compound 0.1 µM) of the same molecule?
Answer: Its viability, T/C is 23.6%.

Question: What about the viability, T/C (second compound 0.01 µM, first compound 0.316 µM) of the same molecule?
Answer: Its viability, T/C is 2.14%.

Question: What about the viability, T/C (second compound 0.01 µM, first compound 1 µM) of the same molecule?
Answer: Its viability, T/C is 0.43%.

Question: What about the viability, T/C (second compound 0.0316 µM, first compound 0.00316 µM) of the same molecule?
Answer: Its viability, T/C is 93.3%.

Question: And the viability, T/C (second compound 0.0316 µM, first compound 0.01 µM)?
Answer: The viability, T/C was 73.3%.

Question: What about the viability, T/C [1] of the same molecule?
Answer: Its viability, T/C is 58.9%.

Question: And the viability, T/C [2]?
Answer: The viability, T/C was 20%.

Question: What about the viability, T/C [3] of the same molecule?
Answer: The viability, T/C was 2.38%.

Question: And the viability, T/C [4]?
Answer: The viability, T/C was 0.3%.

Question: And the viability, T/C (second compound 0.1 µM, first compound 0.00316 µM)?
Answer: The viability, T/C was 94.6%.

Question: What about the viability, T/C (second compound 0.1 µM, first compound 0.01 µM) of the same molecule?
Answer: Its viability, T/C is 68.5%.

Question: What about the viability, T/C [5] of the same molecule?
Answer: The viability, T/C was 62.3%.

Question: And the viability, T/C [6]?
Answer: The viability, T/C was 20.7%.

Question: And the viability, T/C [7]?
Answer: The viability, T/C was 2.8%.

Question: And the viability, T/C [8]?
Answer: Its viability, T/C is 0.78%.

Question: And the viability, T/C (second compound 0.316 µM, first compound 0.00316 µM)?
Answer: The viability, T/C was 77.7%.

Question: What about the viability, T/C (second compound 0.316 µM, first compound 0.01 µM) of the same molecule?
Answer: Its viability, T/C is 74.7%.

Question: What about the viability, T/C [9] of the same molecule?
Answer: Its viability, T/C is 57.5%.

Question: And the viability, T/C [10]?
Answer: The viability, T/C was 22.5%.

Question: What about the viability, T/C [11] of the same molecule?
Answer: Its viability, T/C is 2.78%.

Question: What about the viability, T/C [12] of the same molecule?
Answer: Its viability, T/C is 0.48%.

Question: And the viability, T/C (second compound 1 µM, first compound 0.00316 µM)?
Answer: Its viability, T/C is 88.8%.

Question: What about the viability, T/C (second compound 1 µM, first compound 0.01 µM) of the same molecule?
Answer: Its viability, T/C is 80.8%.

Question: What about the viability, T/C [13] of the same molecule?
Answer: Its viability, T/C is 62%.

Question: What about the viability, T/C [14] of the same molecule?
Answer: The viability, T/C was 24.5%.

Question: What about the viability, T/C [15] of the same molecule?
Answer: Its viability, T/C is 2.77%.

Question: What about the viability, T/C [16] of the same molecule?
Answer: The viability, T/C was 0.56%.

Question: For `CC(C)NCC(C(=O)N1CCN(c2ncnc3c2C(C)CC3O)CC1)c1ccc(Cl)cc1` (centres undefined) + C#Cc1c(F)ccc2cc(O)cc(-c3ncc4c(N5CC6CCC(C5)N6)nc(OCC56CCCN5CC(F)C6)nc4c3F)c12, which IC50 (second compound 0.0316 µM) is on record?
Answer: Its IC50 is under 31.6 nM.

Question: What about the IC50 (second compound 0.1 µM) of the same molecule?
Answer: The IC50 was under 31.6 nM.

Question: What about the IC50 (second compound 0.316 µM) of the same molecule?
Answer: Its IC50 is under 31.6 nM.

Question: What about the IC50 (second compound 1 µM) of the same molecule?
Answer: The IC50 was under 31.6 nM.

Question: And the IC50 (second compound 3.16 µM)?
Answer: Its IC50 is under 31.6 nM.

Question: What about the IC50 (second compound 10 µM) of the same molecule?
Answer: The IC50 was under 31.6 nM.

Question: What about the viability, T/C [1] of the same molecule?
Answer: Its viability, T/C is 22.6%.

Question: What about the viability, T/C [2] of the same molecule?
Answer: The viability, T/C was 18.8%.

Question: What about the viability, T/C [3] of the same molecule?
Answer: Its viability, T/C is 18.2%.

Question: What about the viability, T/C [4] of the same molecule?
Answer: Its viability, T/C is 16.9%.

Question: What about the viability, T/C (second compound 0.0316 µM, first compound 3.16 µM) of the same molecule?
Answer: Its viability, T/C is 11%.

Question: And the viability, T/C (second compound 0.0316 µM, first compound 10 µM)?
Answer: Its viability, T/C is 9.91%.

Question: What about the viability, T/C [5] of the same molecule?
Answer: The viability, T/C was 10.2%.

Question: What about the viability, T/C [6] of the same molecule?
Answer: The viability, T/C was 10.5%.

Question: And the viability, T/C [7]?
Answer: The viability, T/C was 8.54%.

Question: And the viability, T/C [8]?
Answer: Its viability, T/C is 9.68%.

Question: What about the viability, T/C (second compound 0.1 µM, first compound 3.16 µM) of the same molecule?
Answer: Its viability, T/C is 6.47%.

Question: What about the viability, T/C (second compound 0.1 µM, first compound 10 µM) of the same molecule?
Answer: The viability, T/C was 3.99%.

Question: What about the viability, T/C [9] of the same molecule?
Answer: Its viability, T/C is 4.76%.

Question: And the viability, T/C [10]?
Answer: The viability, T/C was 4.25%.

Question: And the viability, T/C [11]?
Answer: Its viability, T/C is 5.02%.

Question: What about the viability, T/C [12] of the same molecule?
Answer: Its viability, T/C is 3.37%.

Question: And the viability, T/C (second compound 0.316 µM, first compound 3.16 µM)?
Answer: The viability, T/C was 3.87%.

Question: And the viability, T/C (second compound 0.316 µM, first compound 10 µM)?
Answer: The viability, T/C was 3.34%.

Question: And the viability, T/C [13]?
Answer: The viability, T/C was 3.41%.

Question: And the viability, T/C [14]?
Answer: The viability, T/C was 17.1%.

Question: What about the viability, T/C [15] of the same molecule?
Answer: Its viability, T/C is 2.83%.

Question: What about the viability, T/C [16] of the same molecule?
Answer: The viability, T/C was 2.26%.

Question: And the viability, T/C (second compound 1 µM, first compound 3.16 µM)?
Answer: The viability, T/C was 1.72%.

Question: And the viability, T/C (second compound 1 µM, first compound 10 µM)?
Answer: Its viability, T/C is 1.05%.

Question: And the viability, T/C (second compound 3.16 µM, first compound 0.0316 µM)?
Answer: Its viability, T/C is 2.28%.

Question: And the viability, T/C (second compound 3.16 µM, first compound 0.1 µM)?
Answer: The viability, T/C was 2.34%.

Question: And the viability, T/C (second compound 3.16 µM, first compound 0.316 µM)?
Answer: The viability, T/C was 1.81%.

Question: What about the viability, T/C (second compound 3.16 µM, first compound 1 µM) of the same molecule?
Answer: The viability, T/C was 1.19%.

Question: What about the viability, T/C (second compound 3.16 µM, first compound 3.16 µM) of the same molecule?
Answer: Its viability, T/C is 1.15%.

Question: What about the viability, T/C (second compound 3.16 µM, first compound 10 µM) of the same molecule?
Answer: Its viability, T/C is 0.64%.

Question: What about the viability, T/C (second compound 10 µM, first compound 0.0316 µM) of the same molecule?
Answer: The viability, T/C was 1.35%.

Question: And the viability, T/C (second compound 10 µM, first compound 0.1 µM)?
Answer: The viability, T/C was 1.29%.

Question: What about the viability, T/C (second compound 10 µM, first compound 0.316 µM) of the same molecule?
Answer: The viability, T/C was 0.78%.

Question: And the viability, T/C (second compound 10 µM, first compound 1 µM)?
Answer: Its viability, T/C is 0.79%.

Question: And the viability, T/C (second compound 10 µM, first compound 3.16 µM)?
Answer: Its viability, T/C is 0.61%.

Question: And the viability, T/C (second compound 10 µM, first compound 10 µM)?
Answer: Its viability, T/C is 0.18%.
